9 compounds from PubChem BioAssay (NCI) can be followed below.

Among the test systems are RPMI-8226 leukemia; SK-MEL-28 melanoma; HOP-92 NSCLC; SW-620 colon; SF-539 CNS; SK-OV-3 ovarian; SN12C renal; SF-268 CNS; SNB-19 CNS; CCRF-CEM leukemia.
Common to all, as to assay: inhibition of tumour cell growth, NCI panel, 48 h

Molecules are shown by their SMILES.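 Each compound was tested at five concentrations against cells in 96-well plates for 48 hours. The concentration for 50% growth inhibition is given as GI50. At the TGI there is no net growth.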

Turning to `CC(C)(C)OC(=O)N(CCCn1c2c(c3ccccc3c1=O)C(=O)c1ccccc1-2)CCN(CCCn1c2c(c3ccccc3c1=O)C(=O)c1ccccc1-2)C(=O)OC(C)(C)C`, the GI50 was 12.1 µM in the experiment with RPMI-8226 leukemia; 37 µM in the experiment with SK-MEL-28 melanoma; 11.1 µM with HOP-92 NSCLC; 49.1 µM in the experiment on SW-620 colon; above 50 µM in the experiment with SF-539 CNS; above 50 µM in the experiment on SK-OV-3 ovarian. In addition, the GI50 with SN12C renal is 39.9 µM; in the experiment on SF-268 CNS, 23.8 µM; with SNB-19 CNS, 37.8 µM; in the experiment with CCRF-CEM leukemia, 4.93 µM. For the same compound, the TGI in the experiment with RPMI-8226 leukemia, in the experiment with SK-MEL-28 melanoma, with HOP-92 NSCLC, with SW-620 colon, in the experiment on SF-539 CNS and in the experiment with SK-OV-3 ovarian was above 50 µM in each case. The TGI with SN12C renal, in the experiment with SF-268 CNS, with SNB-19 CNS and in the experiment on CCRF-CEM leukemia was above 50 µM each time.
Turning to `CCC1(c2ccncc2)CCC(=O)NC1=O` (centres undefined), the TGI in the experiment with RPMI-8226 leukemia, in the experiment with SK-MEL-28 melanoma, in the experiment on HOP-92 NSCLC, with SW-620 colon, in the experiment with SF-539 CNS and in the experiment on SK-OV-3 ovarian was above 100 µM in each case. For the same compound, the TGI with SN12C renal, in the experiment on SF-268 CNS, with SNB-19 CNS and in the experiment with CCRF-CEM leukemia was above 100 µM each time.
For the compound `COc1ccccc1NC(=O)N/C(N)=N/c1nc2ccccc2s1`, the GI50 in the experiment with RPMI-8226 leukemia was 0.163 µM; with SK-MEL-28 melanoma, 30.7 µM; in the experiment on HOP-92 NSCLC it was above 23.4 µM; in the experiment with SW-620 colon, 0.0531 µM; with SF-539 CNS, 0.0718 µM; with SK-OV-3 ovarian, 0.476 µM. Besides, the GI50 is 0.307 µM with SN12C renal, 0.0607 µM in the experiment with SNB-19 CNS and 0.111 µM in the experiment on CCRF-CEM leukemia. For the same compound, the TGI in the experiment on RPMI-8226 leukemia is above 72.4 µM; with SK-MEL-28 melanoma, above 100 µM; with HOP-92 NSCLC, above 100 µM; in the experiment with SW-620 colon it was above 100 µM; in the experiment on SF-539 CNS it was 0.411 µM; with SK-OV-3 ovarian, above 100 µM. Besides, the TGI in the experiment on SN12C renal, with SF-268 CNS, with SNB-19 CNS and in the experiment on CCRF-CEM leukemia was above 100 µM in each case.
`S=C1SC2(CCCCCC2)NC2=C1CCCCC2`: the TGI with RPMI-8226 leukemia was 69.3 µM; in the experiment with SK-MEL-28 melanoma, above 100 µM; in the experiment on HOP-92 NSCLC, 67.3 µM; in the experiment with SW-620 colon it was above 100 µM; with SF-539 CNS, above 100 µM; with SK-OV-3 ovarian, above 100 µM. Also, the TGI was above 100 µM in the experiment with SN12C renal, above 100 µM with SF-268 CNS, 87.5 µM with SNB-19 CNS and above 100 µM in the experiment with CCRF-CEM leukemia.
With `COc1ccc(S(=O)(=O)N2CCCCC2)cc1NC(=O)c1[nH]c(C)c2c1CCCCC2=O`, the GI50 in the experiment on RPMI-8226 leukemia was 1.46 µM; in the experiment with SK-MEL-28 melanoma, 2.72 µM; in the experiment on HOP-92 NSCLC, 0.59 µM; with SW-620 colon, 8.04 µM; with SF-539 CNS, 2.31 µM; in the experiment on SK-OV-3 ovarian it was 2.14 µM. In addition, the GI50 in the experiment on SN12C renal is 3.16 µM; in the experiment on SF-268 CNS, 7.91 µM; with SNB-19 CNS, 3.8 µM; with CCRF-CEM leukemia, 3.14 µM. In addition, the TGI in the experiment on RPMI-8226 leukemia is 32.4 µM; in the experiment on SK-MEL-28 melanoma, above 100 µM; in the experiment on HOP-92 NSCLC it was 48.6 µM; in the experiment on SW-620 colon, above 100 µM; in the experiment with SF-539 CNS, above 100 µM; in the experiment on SK-OV-3 ovarian, 44.4 µM. The TGI in the experiment on SN12C renal, in the experiment on SF-268 CNS, with SNB-19 CNS and in the experiment with CCRF-CEM leukemia was above 100 µM each time.
For the compound `c1ccc2c(c1)[Se]c1ccccc1[Se]2`, the TGI is above 100 µM in the experiment on RPMI-8226 leukemia; above 100 µM with SK-MEL-28 melanoma; 76.3 µM in the experiment with HOP-92 NSCLC; above 100 µM in the experiment with SW-620 colon; above 100 µM with SF-539 CNS; above 100 µM in the experiment with SK-OV-3 ovarian. For the same compound, the TGI in the experiment with SN12C renal, with SF-268 CNS, in the experiment on SNB-19 CNS and with CCRF-CEM leukemia was above 100 µM each time.
As for `Cc1occc1C(=S)Nc1ccc(Cl)c(C(=O)OCC2CC2)c1`, the TGI was 85.5 µM in the experiment with RPMI-8226 leukemia; above 100 µM in the experiment with SK-MEL-28 melanoma; above 100 µM with HOP-92 NSCLC; above 100 µM with SW-620 colon; above 100 µM in the experiment on SF-539 CNS; above 100 µM in the experiment on SK-OV-3 ovarian. The TGI was above 100 µM in the experiment on SN12C renal, above 100 µM with SF-268 CNS, above 100 µM in the experiment with SNB-19 CNS and 91.5 µM in the experiment with CCRF-CEM leukemia.
In the case of `C[C@]1(O)CC(=O)[C@]2(O)C3=C(C=C[C@]2(O)C1)C(=O)c1c(O)cccc1C3=O`, the GI50 in the experiment on RPMI-8226 leukemia was 1.64 µM; with SK-MEL-28 melanoma, 2.11 µM; with HOP-92 NSCLC it was 1.51 µM; in the experiment with SW-620 colon, 1.2 µM; in the experiment on SF-539 CNS, 4.67 µM; in the experiment with SK-OV-3 ovarian, 17.5 µM. Besides, the GI50 in the experiment with SN12C renal is 1.72 µM; in the experiment with SF-268 CNS it was 5.16 µM; with SNB-19 CNS, 13.6 µM; in the experiment with CCRF-CEM leukemia, 0.342 µM. The TGI was determined as 5.65 µM in the experiment on RPMI-8226 leukemia; 4.25 µM in the experiment with SK-MEL-28 melanoma; 2.9 µM with HOP-92 NSCLC; 3.35 µM in the experiment with SW-620 colon; 17 µM in the experiment with SF-539 CNS; 42 µM in the experiment on SK-OV-3 ovarian. For the same compound, the TGI with SN12C renal worked out at 3.18 µM; with SF-268 CNS, 20.5 µM; in the experiment with SNB-19 CNS, 26.5 µM; in the experiment with CCRF-CEM leukemia, 3.33 µM.
As for `CC(C)NCCCNC1=C(Cl)C(=O)c2ccccc2C1=O`, the GI50 in the experiment with RPMI-8226 leukemia was 3.48 µM; in the experiment on SK-MEL-28 melanoma, 2.16 µM; with HOP-92 NSCLC it was 14.6 µM; in the experiment on SW-620 colon, 1.74 µM; with SF-539 CNS it was 16.5 µM; in the experiment on SK-OV-3 ovarian, 15.8 µM. Besides, the GI50 was 1.89 µM with SN12C renal, 4.42 µM in the experiment on SF-268 CNS, 12.8 µM in the experiment with SNB-19 CNS and 3.56 µM in the experiment on CCRF-CEM leukemia. The TGI in the experiment with RPMI-8226 leukemia came to 19.2 µM; with SK-MEL-28 melanoma, 3.92 µM; in the experiment with HOP-92 NSCLC, 31.2 µM; in the experiment on SW-620 colon, 3.37 µM; in the experiment on SF-539 CNS, 31.8 µM; in the experiment with SK-OV-3 ovarian it was 29.4 µM. The TGI in the experiment on SN12C renal amounted to 3.93 µM; with SF-268 CNS it was 15.1 µM; in the experiment on SNB-19 CNS, 26 µM; with CCRF-CEM leukemia, 17.6 µM.
